Results taken from patent US20100036088A1, “Selective poly-N-substituted glycine antibiotics” (priority 2008, published 2010).
Like-named read-outs stand apart in the source and are kept apart here. Marks after values point to notes of the source that are not given here. Square brackets hold non-standard residues; d marks the D form. Peptide text beside a SMILES is read from it. Nspe = C[C@H](NCC(=O)O)c1ccccc1; NDecylGly = CCCCCCCCCCNCC(=O)O; NPentylGly = CCCCCNCC(=O)O; Nlys = NCCCCNCC(=O)O

Tests used:
[1] = system: Candida albicans (SC5314); type: cell-based, C. albicans
Protocol: Additionally, in order to characterize possible antifungal activity, a library of alkylated compounds was tested against C. albicans, a representative fungal strain.
Antifungal Assays. MICs were determined using the broth microdilution assay given by CLSI M27-A2 protocols. Candida albicans (SC5314) was grown on Sabouraud dextrose agar for 24 hours at 30° C. Cells were suspended in 0.145 M saline, and the cell concentration was adjusted to 3×10^6 cells/mL. After adjusting the cell concentration, the suspension was diluted 1:1000 with RPMI 1640 (with L-glutamine and without sodium bicarbonate, Invitrogen) buffered with 0.145 M 3-(N-morpholino) propanesulfonic acid (MOPS). Two-fold serial dilutions of peptoids, peptides, and amphotericin B (Calbiochem) were prepared in RPMI 1640 and mixed with an equal volume of the cell suspension in 96-well plates. The final testing concentrations for the peptoids and peptides were 0.20 to 100 μM, and concentrations for amphotericin B were 0.031 to 16 μM. Growth controls and sterility controls were also included. Plates were incubated for 48 hours at 35° C., and growth of C. albicans was inspected visually to determine the MICs. The MIC for each compound was defined as the lowest concentration with no visible fungal growth. Experiments were performed in duplicate on two separate days.

E. coli = type: cell-based
Protocol: (§1) Antibacterial assays. MICs were determined according to CLSI M7-A6 protocols in a 96-well microtiter plate. In test wells, 50 μL bacterial inoculum (5×10^5 CFU/ml) in Mueller-Hinton broth (MHB) was added to 50 μL peptoid solution in MHB (prepared by 1:2 serial dilutions). Positive controls contained 50 μL inoculum and 50 μL MHB without peptoid. […] MIC values reported were reproducible between three independent experimental replicates, each consisting of two parallel trials. Broad-spectrum antimicrobial susceptibility testing was performed against BSL2 pathogens by Nova Biologicals, Inc. (Conroe, Tex.).
(§2) Screening antibacterial assays. MICs were determined in 96-well microtiter plates in accordance with CLSI M7-A6 protocols. Peptoid solutions with 50 μL total volume were prepared using 2:1 serial dilutions. 50 μL of bacteria inoculum (1×10^6 CFU/mL) prepared in cation-adjusted Mueller-Hinton broth (CAMHB) was added to test wells. Control wells contained 100 μL MHB (no growth) or 50 μL inoculums with 50 μL MHB with no peptoid. […] Reported values were reproducible over three experiments, each containing two parallel trials.

B. subtilis = type: cell-based
Protocol: as §1, §2

human erythrocytes = experiment: Hemolysis assay; type: cell-based; settings: for HD10 (10% hemolytic dose) / HD50 (50% hemolytic dose): red cells of human, 1 h
Method in brief: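 Human erythrocytes from fresh heparinised blood, 20 vol % in PBS pH 7.4, mixed 1:1 with 2-fold serial peptoid dilutions; PBS as 0% and 0.2 vol % Triton X-100 as 100% hemolysis. Incubated 1 h at 37 °C, diluted, centrifuged 1200 g for 15 min; supernatant A350 read.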

SMILES | C. albicans MIC ([1]; SC5314) [µM] | E. coli MIC (E. coli) | B. subtilis MIC (B. subtilis) | C. albicans MIC ([1]; SC5314, 48 h) [µM] | HD10 (human erythrocytes) | HD50 (human erythrocytes) | HD10 (10% hemolytic dose) (human erythrocytes) | HD50 (50% hemolytic dose) (human erythrocytes)
CCCCCCCCCCNCC(=O)N(CCCCN)CC(=O)N(CC(=O)N(CC(=O)N(CCCCN)CC(=O)N(CC(=O)N(CC(=O)N(CCCCN)CC(=O)N(CC(=O)N(CC(=O)N(CCCCN)CC(=O)N(CC(=O)N(CC(N)=O)[C@@H](C)c1ccccc1)[C@@H](C)c1ccccc1)[C@@H](C)c1ccccc1)[C@@H](C)c1ccccc1)[C@@H](C)c1ccccc1)[C@@H](C)c1ccccc1)[C@@H](C)c1ccccc1)[C@@H](C)c1ccccc1 [C10-1] (H-[NDecylGly][Nlys][Nspe][Nspe][Nlys][Nspe][Nspe][Nlys][Nspe][Nspe][Nlys][Nspe][Nspe]-NH2) | 1.6 | 12.5 µM | 1.6 µM | – | 8 µM | 27 µM | – | –
CCCCCNCC(=O)N(CCCCN)CC(=O)N(CC(=O)N(CC(=O)N(CCCCN)CC(=O)N(CC(=O)N(CC(=O)N(CCCCN)CC(=O)N(CC(=O)N(CC(=O)N(CCCCN)CC(=O)N(CC(=O)N(CC(N)=O)[C@@H](C)c1ccccc1)[C@@H](C)c1ccccc1)[C@@H](C)c1ccccc1)[C@@H](C)c1ccccc1)[C@@H](C)c1ccccc1)[C@@H](C)c1ccccc1)[C@@H](C)c1ccccc1)[C@@H](C)c1ccccc1 [C5-1] (H-[NPentylGly][Nlys][Nspe][Nspe][Nlys][Nspe][Nspe][Nlys][Nspe][Nspe][Nlys][Nspe][Nspe]-NH2) | 6.3 | 6.3 µM | 1.6 µM | – | 10 µM | 40 µM | – | –
CCCCCCCCCCNCC(=O)N(CCCCN)CC(=O)N(CC(=O)N(CC(=O)N(CCCCN)CC(=O)N(CC(=O)N(CC(N)=O)[C@@H](C)c1ccccc1)[C@@H](C)c1ccccc1)[C@@H](C)c1ccccc1)[C@@H](C)c1ccccc1 [C10-16 mer] (H-[NDecylGly][Nlys][Nspe][Nspe][Nlys][Nspe][Nspe]-NH2) | 6.25 | 6.3 µM | 1.6 µM | – | 30 µM | 80 µM | – | –
C[C@@H](c1ccccc1)N(CC(N)=O)C(=O)CN(C(=O)CN(CCCCN)C(=O)CN(C(=O)CN(C(=O)CNCCCCN)[C@@H](C)c1ccccc1)[C@@H](C)c1ccccc1)[C@@H](C)c1ccccc1 [16 mer, H-(Nlys-Nspe-Nspe)2-NH2] (H-[Nlys][Nspe][Nspe][Nlys][Nspe][Nspe]-NH2) | – | 27* μM | 27* μM | >100 | >220/>220 μM | >220/>220 μM | >220/>220 μM | >220/>220 μM

Further lines, with some results ahead:

C. albicans MIC ([1]; SC5314) [µM] | E. coli MIC (E. coli) | B. subtilis MIC (B. subtilis) | C. albicans MIC ([1]; SC5314, 48 h) [µM] | SMILES | HD10 (human erythrocytes) | HD50 (human erythrocytes) | HD10 (10% hemolytic dose) (human erythrocytes) | HD50 (50% hemolytic dose) (human erythrocytes)
100 | >200 µM | 3.1 µM | – | CCCCCNCC(=O)N(CCCCN)CC(=O)N(CC(=O)N(CC(=O)N(CCCCN)CC(=O)N(CC(=O)N(CC(N)=O)[C@@H](C)c1ccccc1)[C@@H](C)c1ccccc1)[C@@H](C)c1ccccc1)[C@@H](C)c1ccccc1 [C5-16 mer] (H-[NPentylGly][Nlys][Nspe][Nspe][Nlys][Nspe][Nspe]-NH2) | >200/>200 μM | >200/>200 μM | – | –
3.1 | 6.3 µM | 3.1 µM | – | CCCCCCCCCCNCC(=O)N(CCCCN)CC(=O)N(CC(=O)N(CC(=O)N(CCCCN)CC(=O)N(CC(=O)N(CC(=O)N(CCCCN)CC(=O)N(CC(=O)N(CC(N)=O)[C@@H](C)c1ccccc1)[C@@H](C)c1ccccc1)[C@@H](C)c1ccccc1)[C@@H](C)c1ccccc1)[C@@H](C)c1ccccc1)[C@@H](C)c1ccccc1 [C10-19 mer] (H-[NDecylGly][Nlys][Nspe][Nspe][Nlys][Nspe][Nspe][Nlys][Nspe][Nspe]-NH2) | 12 µM | 40 µM | – | –
– | 25 µM | 1.6 µM | 15.6 | C[C@@H](c1ccccc1)N(CC(N)=O)C(=O)CN(C(=O)CN(CCCCN)C(=O)CN(C(=O)CN(C(=O)CN(CCCCN)C(=O)CN(C(=O)CN(C(=O)CNCCCCN)[C@@H](C)c1ccccc1)[C@@H](C)c1ccccc1)[C@@H](C)c1ccccc1)[C@@H](C)c1ccccc1)[C@@H](C)c1ccccc1 [19 mer, H-(Nlys-Nspe-Nspe)3-NH2] (H-[Nlys][Nspe][Nspe][Nlys][Nspe][Nspe][Nlys][Nspe][Nspe]-NH2) | 150 µM | > 200 µM | >150/>150 μM | >150/>150 μM
